Experimental data: a compilation of properties of binary mixtures

Assay: xn = mol fraction of the nth substance listed
Settings: 101 kPa

CO + CCCC[n+]1ccc(C)cc1.F[B-](F)(F)F
x1 = 1
Settings | viscosity [mPa·s]
313.15 K | 0.436
323.15 K | 0.383

CCCC[n+]1ccc(C)cc1.F[B-](F)(F)F + CO
viscosity [mPa·s]
Settings | 298.15 K | 313.15 K | 323.15 K
x1 = 0.0151 | 0.621 | 0.507 | –
x2 = 0 | – | 81 | 50.2
x2 = 0.4287 | – | – | 9.2
x2 = 0.5246 | – | 7.58 | 5.92
x2 = 0.5678 | 9.3 | 6.31 | 4.95
x2 = 0.718 | 4.19 | – | 2.5
x2 = 0.8313 | 2.02 | 1.54 | –
x2 = 0.8803 | 1.46 | – | –
x2 = 0.9154 | 1.11 | 0.877 | 0.763
x2 = 0.9452 | 0.868 | 0.696 | 0.611
x2 = 0.9671 | – | 0.586 | 0.519
x2 = 0.9775 | 0.669 | 0.544 | 0.476
